Experimental data published in article PMC10005104 (Molecules, 2023).
Several values for one entry are separate records, joined by “and”; a condition that tells them apart may be missing. Identical values can stand only once. Counter-ions that a name gives are not always drawn. Like-named read-outs stand apart in the source and are kept apart here. Marks after values point to notes of the source that are not given here.

Assays:
[1] = MTS assay in SH-SY5Y cells; format: cell-based; details: human, SH-SY5Y neuroblastoma cells; at 50 µM, percentage of control (vehicle-treated cells); read-out: SH-SY5Y Cell Viability (%)
Method: (§1) . After the indicated time, the MTS reagent was added directly to the cultured cells for 1 h, and then the absorbance at 490 nm was read. […] The results are presented in Table 2 and Figures S1 and S2 (Supplementary Materials).
(§2) The hepatoma cell line HepG2 (ATCC® HB-8065TM) and SH-SY5Y CRL-2266 neuroblastoma cell line were used to evaluate the toxicity of tested compounds. Tests were conducted as described previously. The CellTiter 96® Aqueous Non-Radioactive Cell Proliferation Assay was purchased from Promega (Madison, WI, USA). […]. […] Each experiment was performed twice, in triplicate.

[2] = test system: SH-SY5Y cells; test: MTS assay in SH-SY5Y cells; format: cell-based; details: for SH-SY5Y Cell Viability (%): at 50 µM, percentage of control (vehicle-treated cells)
Method: as §1, §2

[3] = molecular target: T1, AChE from electrophorus electricus (eeAChE) (Electrophorus electricus, UniProt O42275); test: modified Ellman colorimetric assay, eeAChE; format: biochemical; details: for IC50: three independent experiments, read-out: eeAChE IC50 Mean ± SEM; for inhibition at 10 µM: read-out: eeAChE % inh
T1 construct: purchased Sigma-Aldrich (Steinheim, Germany)
T1 sequence (O42275 24-633): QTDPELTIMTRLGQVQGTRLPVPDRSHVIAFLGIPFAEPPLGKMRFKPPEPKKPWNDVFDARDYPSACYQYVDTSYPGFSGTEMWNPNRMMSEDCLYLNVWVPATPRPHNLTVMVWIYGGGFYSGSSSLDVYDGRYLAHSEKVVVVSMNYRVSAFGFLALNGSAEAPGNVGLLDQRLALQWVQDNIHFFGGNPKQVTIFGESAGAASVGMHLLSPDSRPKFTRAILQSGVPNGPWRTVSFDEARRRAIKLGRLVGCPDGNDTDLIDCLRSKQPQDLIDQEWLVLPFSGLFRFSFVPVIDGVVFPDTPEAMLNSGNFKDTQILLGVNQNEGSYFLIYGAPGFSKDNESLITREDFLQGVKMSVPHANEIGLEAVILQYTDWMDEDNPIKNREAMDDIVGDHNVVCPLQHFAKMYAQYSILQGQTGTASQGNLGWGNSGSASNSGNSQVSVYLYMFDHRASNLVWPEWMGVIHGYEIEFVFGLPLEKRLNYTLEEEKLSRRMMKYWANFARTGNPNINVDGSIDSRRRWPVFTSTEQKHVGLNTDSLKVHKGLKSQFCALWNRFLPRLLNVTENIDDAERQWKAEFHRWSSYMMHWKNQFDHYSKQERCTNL
Method: All compounds were tested at a concentration of 10 µM in a modified colorimetric method first described by Ellman et al. in the 1960s, using AChE from electrophorus electricus (eeAChE) and BuChE from equine serum (eqBuChE). […]. All results are collected in Table 1. […]. […] No correlation was observed between inhibitory activity and hH3R affinity. The most interesting compounds were among the azepane derivatives. […]. AChE from electrophorus electricus and BuChE from equine serum were purchased from Sigma-Aldrich (Steinheim, Germany). The whole procedure was performed as previously described, using a modified Ellman method in 96-well microplates. Absorbance was measured using an EnSpire multimode microplate reader (PerkinElmer, Waltham, MA, USA) at 412 nm. Initial screening was performed for compounds at a concentration of […]. The percentage of inhibition was calculated by comparison with a blank sample (100% enzyme activity). For compounds showing >70% inhibition of enzyme activity, IC50 values were determined, measuring absorbance at six different inhibitor concentrations. Each concentration was measured in triplicate. IC50 values were calculated using GrapPad Prism 9 software (GraphPad Software, San Diego, CA, USA). Data are expressed as mean ± SEM.

[4] = molecular target: T2, human H3 receptor (hH3R) (Homo sapiens, UniProt Q9Y5N1); test: [3H]-Nα-methylhistamine radioligand binding assay, HEK293 cell membranes expressing hH3R; details: hH3R Ki Mean [CI 95%], HEK293 cells expressing human H3 receptor; at least three independent repetitions
T2 construct: expressed in transfected cells; host or cells: HEK293
T2 sequence (Q9Y5N1 whole entry): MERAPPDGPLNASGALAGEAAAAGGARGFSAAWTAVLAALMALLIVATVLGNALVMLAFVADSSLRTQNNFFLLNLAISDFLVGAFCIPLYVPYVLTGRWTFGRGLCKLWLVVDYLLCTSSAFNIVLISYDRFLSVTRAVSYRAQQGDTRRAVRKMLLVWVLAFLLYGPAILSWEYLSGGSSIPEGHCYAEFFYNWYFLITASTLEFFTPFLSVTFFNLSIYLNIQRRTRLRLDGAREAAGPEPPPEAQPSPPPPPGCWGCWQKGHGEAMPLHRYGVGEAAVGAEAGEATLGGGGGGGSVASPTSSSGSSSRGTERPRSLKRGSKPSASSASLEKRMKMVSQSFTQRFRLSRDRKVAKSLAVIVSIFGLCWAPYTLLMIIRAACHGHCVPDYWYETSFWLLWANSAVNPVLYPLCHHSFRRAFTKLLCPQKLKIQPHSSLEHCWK
Method: The affinity for hH3R was assessed in vitro in radioligand binding assays, using membrane preparations of HEK293 cells stably expressing hH3R, while [^3H]-N^α-methylhistamine was used as a radioligand. The exact procedure was described previously by Kottke et al.. Novel compounds were tested as oxalic acid salts. […]. The activity depended on all three variables, i.e., the presence of an amine group, the chain length (five or six carbons), and the type of substituent in the phenyl ring. With regard to the change in the amine moiety, it can be observed that, regardless of the length of the chain and the type of R substituent, the activity of the derivatives was arranged in the following order: 3-methylpiperidine ≥ piperidine ≥ azepane >> 4-metylpiperidine derivatives. Regarding the length of the carbon chain, compounds bearing the pentylene chain are characterized by a higher binding affinity to the receptor than hexylene derivatives (exception: 10). […]
H3R receptor affinity assays were performed in the radioligand competition assay. Human H3R was stably expressed in HEK293 cells. [^3H]-N^α-Methylhistamine (KD = 3.08 nM) was used as the radioligand. The compounds used in the experiments were dissolved in DMSO. The precise experiment was performed as previously described. Complete curves were obtained for at least seven approximate concentrations, in at least three independent experiments, performed at least in duplicate. Ki values were calculated using the Cheng–Prusoff equation. Results are presented as mean values with confidence intervals (CI) (95%).

[5] = molecular target: T3, BuChE from equine serum (eqBuChE) (Equus caballus, UniProt P81908); test: biochemical; details: for inhibition at 10 µM: read-out: eqBuChE % inh
T3 construct: BuChE from equine serum (eqBuChE); purchased Sigma-Aldrich (Steinheim, Germany); host or cells: equine serum
T3 sequence (P81908 whole entry): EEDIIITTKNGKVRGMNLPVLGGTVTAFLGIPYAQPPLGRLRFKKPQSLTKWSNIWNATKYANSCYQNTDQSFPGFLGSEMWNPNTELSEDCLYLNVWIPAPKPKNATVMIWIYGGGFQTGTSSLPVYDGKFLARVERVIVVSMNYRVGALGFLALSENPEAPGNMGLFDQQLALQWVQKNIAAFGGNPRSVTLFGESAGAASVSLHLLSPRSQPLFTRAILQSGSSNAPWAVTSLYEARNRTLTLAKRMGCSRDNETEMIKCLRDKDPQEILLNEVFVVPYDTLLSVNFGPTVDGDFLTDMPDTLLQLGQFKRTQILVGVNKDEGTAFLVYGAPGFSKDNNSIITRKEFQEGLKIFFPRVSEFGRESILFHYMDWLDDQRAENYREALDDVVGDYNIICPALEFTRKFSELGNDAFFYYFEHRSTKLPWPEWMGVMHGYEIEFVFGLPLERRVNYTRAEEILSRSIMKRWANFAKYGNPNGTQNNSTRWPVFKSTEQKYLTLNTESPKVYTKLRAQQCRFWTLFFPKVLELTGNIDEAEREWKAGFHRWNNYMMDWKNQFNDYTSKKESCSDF
Method: AChE from electrophorus electricus and BuChE from equine serum were purchased from Sigma-Aldrich (Steinheim, Germany). The whole procedure was performed as previously described, using a modified Ellman method in 96-well microplates. […] Initial screening was performed for compounds at a concentration of […]. The percentage of inhibition was calculated by comparison with a blank sample (100% enzyme activity). […] Each concentration was measured in triplicate. IC50 values were calculated using GrapPad Prism 9 software (GraphPad Software, San Diego, CA, USA). Data are expressed as mean ± SEM.

[6] = test system: HepG2 cells; test: MTS assay in HepG2 cells; format: cell-based; details: Homo sapiens, HepG2; MTS assay, 48 h of exposure
Method: as §1, §2

[7] = MTS assay in HepG2 cells; format: cell-based; details: human, HepG2 hepatoma cells; at 50 µM, percentage of control (vehicle-treated cells); read-out: HepG2 Cell Viability (%)
Method: as §1, §2

[8] = molecular target: T4, hMAO B (Homo sapiens, UniProt P27338); test: fluorometric Amplex red MAO assay; format: biochemical; details: read-out: hMAO B % inh
T4 construct: purchased Sigma-Aldrich (Steinheim, Germany)
T4 sequence (P27338 1-520): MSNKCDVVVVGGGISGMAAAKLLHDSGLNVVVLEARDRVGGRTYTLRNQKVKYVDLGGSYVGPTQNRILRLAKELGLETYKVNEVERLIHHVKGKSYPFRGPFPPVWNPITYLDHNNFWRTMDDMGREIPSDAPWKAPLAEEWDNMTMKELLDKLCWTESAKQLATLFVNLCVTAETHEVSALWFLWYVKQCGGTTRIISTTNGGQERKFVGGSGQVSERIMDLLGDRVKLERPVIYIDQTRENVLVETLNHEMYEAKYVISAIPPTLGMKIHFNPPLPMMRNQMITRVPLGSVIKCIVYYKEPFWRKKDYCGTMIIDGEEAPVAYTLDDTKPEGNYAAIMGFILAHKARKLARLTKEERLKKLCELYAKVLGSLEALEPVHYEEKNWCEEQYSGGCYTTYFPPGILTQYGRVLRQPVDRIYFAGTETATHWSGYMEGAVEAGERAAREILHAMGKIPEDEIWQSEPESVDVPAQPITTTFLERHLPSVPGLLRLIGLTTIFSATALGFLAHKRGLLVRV
Method: The ability to inhibit MAO B was estimated by a fluorescence assay, as previously described.
The enzyme was purchased from Sigma-Aldrich (Steinheim, Germany). Screening was carried out at a concentration of 1 micromolar. Inhibitor activity was measured in the presence of p-tyramine.
Data are expressed as mean values of two independent experiments.

[9] = MTS assay, statements on both cell lines together; format: cell-based, human; details: human, HepG2 hepatoma cells and SH-SY5Y neuroblastoma cells; HepG2 48 h, SH-SY5Y 24 h; up to 50 µM; read-out: cell viability at the highest doses tested
[10] = molecular target: hH3R; details: cited from earlier work
[11] = molecular target: T1, AChE from electrophorus electricus (eeAChE); details: at 10 µM; cited from earlier work
[12] = at 1 µM, two independent experiments

SMILES | IC50 [3] [nM] | Ki [4] | inhibition at 10 µM [5] [%] | IC50 [6] [nM] | viability at 48 h, 50 µM [7] [%] | inhibition at 1 µM [8, 12] [%] | viability at 50 µM [9] [%] | inhibition at 10 µM [3] [%] | other results
CC(=O)c1ccc(OCCCCCN2CCCC(C)C2)cc1 (stereo not shown) [Compound 6, 1-(4-((5-(3-Methylpiperidin-1-yl)pentyl)oxy)phenyl)ethan-1-one hydrogen oxalate] | 3060 ± 100 | < 50 nM and 26 nM | 14 | 120000 | 74.3 ± 5.58 | 10 | > 50 |  | viability at 24 h, 50 µM [1]: 86.2 ± 2.2%; IC50 ([2]; Homo sapiens, SH-SY5Y, MTS assay, 24 h of exposure): 149000 nM
CCC(=O)c1ccc(OCCCCCN2CCCCC2)cc1 [Compound 4, 1-(4-((5-(Piperidin-1-yl)pentyl)oxy)phenyl)propan-1-one hydrogen oxalate] |  | < 50 nM and 24 nM | 32 |  |  | 16 |  | 49 | 
CC(=O)c1ccc(OCCCCCN2CCC(C)CC2)cc1 [Compound 10, 1-(4-((5-(4-Methylpiperidin-1-yl)pentyl)oxy)phenyl)ethan-1-one hydrogen oxalate] |  | 120 nM | 43 |  |  | 0 |  | 60 | 
CC(=O)c1ccc(OCCCCCCN2CCC(C)CC2)cc1.O=C(O)C(=O)O [Compound 11, 1-(4-((6-(4-Methylpiperidin-1-yl)hexyl)oxy)phenyl)ethan-1-one hydrogen oxalate] | 2650 ± 110 | 106 nM | 49 | 223000 | 77.5 ± 0.94 | 0 | > 50 |  | SH-SY5Y Cell Viability (%) [2]: No toxic effect
Cc1ccc2oc(-c3ccc(OCCCCCCN4CCCCCC4)cc3)cc(=O)c2c1 [III] |  |  |  |  |  |  |  |  | Ki [10]: 160 nM
CCC(=O)c1ccc(OCCCCCCN2CCC(C)CC2)cc1.O=C(O)C(=O)O [Compound 13, 1-(4-((6-(4-Methylpiperidin-1-yl)hexyl)oxy)phenyl)propan-1-one hydrogen oxalate] | 2560 ± 80 | 58 nM | 65 | 105000 | 64.7 ± 4.4 | 1 | > 50 |  | SH-SY5Y Cell Viability (%) [2]: No toxic effect
O=c1c2ccccc2oc2ccc(OCCCCCN3CCCCCC3)cc12 [IV] |  |  |  |  |  |  |  |  | Ki [10]: 170 nM
CCC(=O)c1ccc(OCCCCCCN2CCCC(C)C2)cc1 (stereo not shown) [Compound 9, 1-(4-((6-(3-Methylpiperidin-1-yl)hexyl)oxy)phenyl)propan-1-one hydrogen oxalate] |  | < 50 nM and 38 nM | 66 |  |  | 12 |  | 68 | 
CC(=O)c1ccc(OCCCCCN2CCCCCC2)cc1 [Compound 14, 1-(4-((5-(Azepan-1-yl)pentyl)oxy)phenyl)ethan-1-one hydrogen oxalate] |  | 52 nM | 63 |  |  | 37 |  | 63 | 
C#CCN[C@@H]1CCc2ccccc21 [rasagiline, reference compound] |  |  |  |  |  |  |  |  | inhibition at 1 µM [8]: 100%
CC(=O)c1ccc(OCCCCCCN2CCCC(C)C2)cc1.O=C(O)C(=O)O (stereo not shown) [Compound 7, 1-(4-((6-(3-Methylpiperidin-1-yl)hexyl)oxy)phenyl)ethan-1-one hydrogen oxalate] | 1750 ± 50 | 72 nM | 18 | 148000 | 72.4 ± 4.54 | 0 | > 50 |  | SH-SY5Y Cell Viability (%) [2]: No toxic effect
Clc1ccc(CCCOCCCN2CCCCC2)cc1 [pitolisant] |  |  |  |  |  |  |  |  | eeAChE % inh [11]: (3%) ^g
CC(=O)c1ccc(OCCCCCCN2CCCCC2)cc1 [Compound 3, 1-(4-((6-(Piperidin-1-yl)hexyl)oxy)phenyl)ethan-1-one hydrogen oxalate] |  | 75 nM | 23 |  |  | 3 |  | 67 | 
CC(=O)c1ccc(OCCCCCN2CCCCC2)cc1 [Compound 2, 1-(4-((5-(Piperidin-1-yl)pentyl)oxy)phenyl)ethan-1-one hydrogen oxalate] |  | < 50 nM and 34 nM | 25 |  |  | 2 |  | 45 | 
CC(=O)c1ccc(OCCCCCCN2CCCCCC2)cc1 [Compound 15, 1-(4-((6-(Azepan-1-yl)hexyl)oxy)phenyl)ethan-1-one hydrogen oxalate] |  | 79 nM | 68 |  |  | 6 |  | 67 | 
CCC(=O)c1ccc(OCCCCCCN2CCCCC2)cc1.O=C(O)C(=O)O [Compound 5, 1-(4-((6-(Piperidin-1-yl)hexyl)oxy)phenyl)propan-1-one hydrogen oxalate] | 4790 ± 190 | < 50 nM and 41 nM |  | 158000 | 69.5 ± 2.14 | 22 | > 50 |  | SH-SY5Y Cell Viability (%) [2]: No toxic effect; IC50 ([5]; three independent experiments, read-out: eqBuChE IC50 Mean ± SEM): 1350 ± 40 nM
